Columns and labels:
[1] = mouse, in vivo
Experimental: GlySA (DMSO stock solution diluted by saline) were administrated to three month old female BALB CJ mice via tail vein injections. […] The GlySA concentration tested were 0.4 mg/kg (10 μM), 2.0 mg/kg (50 μM), 4.0 mg/kg (100 μM). N=3 for each group.
Animal experiments were also performed to study the use of GlySA to treat cancer. A maximum tolerant dosage assay of GlySA was conducted. GlySA (DMSO stock solution diluted by saline) were administrated to three month old female BALB CJ mice via tail vein injections. […] The GlySA concentration tested were 0.4 mg/kg (10 μM), 2.0 mg/kg (50 μM), 4.0 mg/kg (100 μM). N=3 for each group.

[2] = tested on: SF-268; experiment: NCI 60 Cell One-Dose Screen; assay type: cell-based, human; settings: SF-268, CNS Cancer; single dose 10^-5 M
[3] = tested on: NCI-H23; experiment: NCI 60 Cell One-Dose Screen; assay type: cell-based, human; settings: NCI-H23, Non-Small Cell Lung Cancer; single dose 10^-5 M
[4] = tested on: HCT-116; experiment: NCI 60 Cell One-Dose Screen; assay type: cell-based, human; settings: HCT-116, Colon Cancer; single dose 10^-5 M
[5] = tested on: K-562; experiment: NCI 60 Cell One-Dose Screen; assay type: cell-based, human; settings: K-562, Leukemia; single dose 10^-5 M
[6] = tested on: RPMI-8226; experiment: NCI 60 Cell One-Dose Screen; assay type: cell-based, human; settings: RPMI-8226, Leukemia; single dose 10^-5 M
[7] = tested on: CCRF-CEM; experiment: NCI 60 Cell One-Dose Screen; assay type: cell-based, human; settings: Leukemia, single dose 10^-5 M
[8] = tested on: UACC-257; experiment: NCI 60 Cell One-Dose Screen; assay type: cell-based, human; settings: UACC-257, Melanoma; single dose 10^-5 M
[9] = tested on: EKVX; experiment: NCI 60 Cell One-Dose Screen; assay type: cell-based, human; settings: Non-Small Cell Lung Cancer, single dose 10^-5 M
[10] = tested on: COLO 205; experiment: NCI 60 Cell One-Dose Screen; assay type: cell-based, human; settings: COLO 205, Colon Cancer; single dose 10^-5 M
[11] = tested on: SN12C; assay type: cell-based; settings: Renal Cancer
[12] = tested on: OVCAR-5; assay type: cell-based; settings: OVCAR-5, Ovarian Cancer
[13] = tested on: OVCAR-4; assay type: cell-based; settings: OVCAR-4, Ovarian Cancer
[14] = tested on: OVCAR-8; assay type: cell-based; settings: OVCAR-8, Ovarian Cancer
[15] = tested on: NCI/ADR-RES; assay type: cell-based; settings: Ovarian Cancer
[16] = tested on: NCI-H23; assay type: cell-based; settings: NCI-H23, Non-Small Cell Lung Cancer
[17] = tested on: MOLT-4; assay type: cell-based; settings: MOLT-4, Leukemia
[18] = tested on: HS 578T; assay type: cell-based; settings: Breast Cancer
[19] = tested on: NCI-H460; assay type: cell-based; settings: NCI-H460, Non-Small Cell Lung Cancer
[20] = tested on: SW-620; assay type: cell-based; settings: SW-620, Colon Cancer
[21] = tested on: PC-3; assay type: cell-based; settings: PC-3, Prostate Cancer
[22] = tested on: SK-OV-3; assay type: cell-based; settings: SK-OV-3, Ovarian Cancer
[23] = tested on: NCI-H522; assay type: cell-based; settings: NCI-H522, Non-Small Cell Lung Cancer
[24] = tested on: HCC-2998; assay type: cell-based; settings: HCC-2998, Colon Cancer
[25] = tested on: LOX IMVI; assay type: cell-based; settings: Melanoma
[26] = tested on: A498; assay type: cell-based; settings: A498, Renal Cancer
[27] = tested on: M14; assay type: cell-based; settings: M14, Melanoma
[28] = tested on: SK-MEL-5; assay type: cell-based; settings: SK-MEL-5, Melanoma
[29] = Homo sapiens, read-out: LC50 (the source's name)

In the case of `NCC(=O)NS(=O)(=O)OC[C@H]1O[C@@H](n2cnc3c(N)ncnc32)[C@H](O)[C@@H]1O` [GlySA, glycylsulfamoyladenosine], the “survival of mice after four injections” value [1] is reported as “all were alive”, the “Growth inhibition count (%)” value [2] is reported as 3.776% and the “Growth inhibition count (%)” value [3] is reported as 5.695%. For the same molecule, the “Growth inhibition count (%)” value [4] was 6.566%, the “Growth inhibition count (%)” value [5] was 7.376% and the “Growth inhibition count (%)” value [6] was 18.04%. The “Growth inhibition count (%)” value [7] was 21.68%, the “Growth inhibition count (%)” value [8] was 27.43% and the “Growth inhibition count (%)” value [9] was 44.07%. For the same molecule, the “Growth inhibition count (%)” value [10] was 48.51%, the GI50 ([11]; Homo sapiens) was 0.562 µM and the CC50 [11, 29] was 95.5 µM. The LC50/GI50 [11] was 169.8, the GI50 ([12]; Homo sapiens) was 0.741 µM and the CC50 [12, 29] was greater than 100 µM. For the same molecule, the LC50/GI50 [12] was greater than 134.9, the GI50 ([13]; Homo sapiens) was 0.389 µM and the CC50 [13, 29] was 24 µM. For the same molecule, the LC50/GI50 [13] was 61.7, the GI50 ([14]; Homo sapiens) was 2.46 µM and the CC50 [14, 29] was greater than 100 µM. For the same molecule, the LC50/GI50 [14] was greater than 40.7, the GI50 ([15]; Homo sapiens) was 2.51 µM and the CC50 [15, 29] was greater than 100 µM. For the same molecule, the LC50/GI50 [15] was greater than 39.8, the GI50 ([16]; Homo sapiens) was 2.57 µM and the CC50 [16, 29] was greater than 100 µM. The LC50/GI50 [16] was greater than 38.9, the GI50 ([17]; Homo sapiens) was 2.63 µM and the CC50 [17, 29] was greater than 100 µM. For the same molecule, the LC50/GI50 [17] was greater than 38.0, the LC50/GI50 [18] was greater than 34.7 and the GI50 ([18]; Homo sapiens) was 2.88 µM. For the same molecule, the CC50 [18, 29] was greater than 100 µM, the GI50 ([19]; Homo sapiens) was 3.24 µM and the CC50 [19, 29] was greater than 100 µM. For the same molecule, the LC50/GI50 [19] was greater than 30.9, the GI50 ([20]; Homo sapiens) was 3.71 µM and the CC50 [20, 29] was greater than 100 µM. It also gave an LC50/GI50 [20] greater than 26.9, a GI50 ([21]; Homo sapiens) of 2.63 µM and a CC50 [21, 29] of 56.2 µM. The LC50/GI50 [21] was 21.4, the GI50 ([22]; Homo sapiens) was 2.88 µM and the CC50 [22, 29] was 37.1 µM. For the same molecule, the LC50/GI50 [22] was 12.9, the GI50 ([23]; Homo sapiens) was 1.74 µM and the CC50 [23, 29] was 8.51 µM. It also gave an LC50/GI50 [23] of 4.9, an LC50/GI50 [24] of 4.6 and a GI50 ([24]; Homo sapiens) of 2.04 µM. For the same molecule, the CC50 [24, 29] was 9.33 µM, the GI50 ([25]; Homo sapiens) was 1.7 µM and the CC50 [25, 29] was 7.41 µM. It also gave an LC50/GI50 [25] of 4.4, an LC50/GI50 [26] of 4.1 and a GI50 ([26]; Homo sapiens) of 1.58 µM. For the same molecule, the CC50 [26, 29] was 6.46 µM, the GI50 ([27]; Homo sapiens) was 1.82 µM and the CC50 [27, 29] was 7.24 µM. The LC50/GI50 [27] was 4.0, the GI50 ([28]; Homo sapiens) was 1.86 µM and the LC50/GI50 [28] was 3.2.

From US20190381086A1, “INHIBITION OF NEDDYLATION USING GLYCYL-tRNA SYNTHETASE INHIBITORS” (The Scripps Research Institute, priority 2015, published 2019)
